Measurements as given in patent publication US20230085307A1, “PYRIDAZINONE COMPOUND AND HERBICIDE” (NISSAN CHEMICAL CORPORATION, priority 2019, published 2023).

Tests used:
barnyard grass [1] = assay: Test Example 3: herbicidal effect by foliage application, Wagner pot (Table 18, symbol H); format: in vivo, barnyard grass (Echinochloa crus-galli); details: 320 g/ha
How it was run: (§1)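 Plants were sown in alluvial soil held under 0.1–0.5 cm standing water and grown 14 days in a greenhouse at 25–30 °C. An emulsifiable formulation, water-diluted to the set dose, was then sprayed onto the foliage, and effects were scored three weeks later using previously defined criteria.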

rice flat sedge = assay: Test Example 3: herbicidal effect by foliage application, Wagner pot (Table 18, symbol E); format: in vivo, rice flat sedge (Cyperus iria); details: 320 g/ha
How it was run: as §1

velvetleaf [2] = assay: Test Example 4: herbicidal effect by soil treatment (Table 19, symbol M); format: in vivo, velvetleaf (Abutilon theophrasti); details: amount of applied herbicide 320 g/ha
How it was run: (§2)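 Herbicidal effect was rated 3 weeks after treatment, using the scoring criteria of an earlier test. The compound, formulated as an emulsion and diluted in water to a set herbicide amount, had been sprayed uniformly on soil over freshly sown seeds. Growth took place in a greenhouse at 25° C. to 30° C.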

persian speedwell [3] = assay: Test Example 4: herbicidal effect by soil treatment (Table 19, symbol R); format: in vivo, Persian speedwell (Veronica persica); details: amount of applied herbicide 320 g/ha
How it was run: as §2

redroot pigweed [4] = assay: Test Example 5: herbicidal effect by foliage application, plastic box (Table 20, symbol N); format: in vivo, redroot pigweed (Amaranthus retroflexus); details: amount of applied herbicide 320 g/ha; foliage application after 14-day growth; evaluated three weeks after application
How it was run: (§3)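 Foliar spray test: emulsion formulation diluted in water to a set application rate, sprayed onto 14-day-old plants raised in diluvial soil at 25° C to 30° C under glass. Both herbicidal effect and crop effect rated visually three weeks later.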

green foxtail [5] = assay: Test Example 4: herbicidal effect by soil treatment (Table 19, symbol G); format: in vivo, green foxtail (Setaria viridis); details: amount of applied herbicide 320 g/ha
How it was run: as §2

velvetleaf [6] = assay: Test Example 5: herbicidal effect by foliage application, plastic box (Table 20, symbol M); format: in vivo, velvetleaf (Abutilon theophrasti); details: amount of applied herbicide 320 g/ha; foliage application after 14-day growth; evaluated three weeks after application
How it was run: as §3

Italian ryegrass [7] = assay: Test Example 5: herbicidal effect by foliage application, plastic box (Table 20, symbol K); format: in vivo, Italian ryegrass (Lolium multiflorum); details: amount of applied herbicide 320 g/ha; foliage application after 14-day growth; evaluated three weeks after application
How it was run: as §3

Italian ryegrass [8] = assay: Test Example 4: herbicidal effect by soil treatment (Table 19, symbol K); format: in vivo, Italian ryegrass (Lolium multiflorum); details: amount of applied herbicide 320 g/ha
How it was run: as §2

lambsquarters [9] = assay: Test Example 4: herbicidal effect by soil treatment (Table 19, symbol O); format: in vivo, lambsquarters (Chenopodium album); details: amount of applied herbicide 320 g/ha
How it was run: as §2

southern crabgrass [10] = assay: Test Example 4: herbicidal effect by soil treatment (Table 19, symbol F); format: in vivo, southern crabgrass (Digitaria ciliaris); details: amount of applied herbicide 320 g/ha
How it was run: as §2

southern crabgrass [11] = assay: Test Example 5: herbicidal effect by foliage application, plastic box (Table 20, symbol F); format: in vivo, southern crabgrass (Digitaria ciliaris); details: amount of applied herbicide 320 g/ha; foliage application after 14-day growth; evaluated three weeks after application
How it was run: as §3

blackgrass [12] = assay: Test Example 4: herbicidal effect by soil treatment (Table 19, symbol J); format: in vivo, blackgrass (Alopecurus myosuroides); details: amount of applied herbicide 320 g/ha
How it was run: as §2

barnyard grass [13] = assay: Test Example 4: herbicidal effect by soil treatment (Table 19, symbol H); format: in vivo, barnyard grass (Echinochloa crus-galli); details: amount of applied herbicide 320 g/ha
How it was run: as §2

wild oat [14] = assay: Test Example 5: herbicidal effect by foliage application, plastic box (Table 20, symbol I); format: in vivo, wild oat (Avena fatua); details: amount of applied herbicide 320 g/ha; foliage application after 14-day growth; evaluated three weeks after application
How it was run: as §3

windgrass [15] = assay: Test Example 5: herbicidal effect by foliage application, plastic box (Table 20, symbol L); format: in vivo, windgrass (Apera spica-venti); details: amount of applied herbicide 320 g/ha; foliage application after 14-day growth; evaluated three weeks after application
How it was run: as §3

chickweed [16] = assay: Test Example 5: herbicidal effect by foliage application, plastic box (Table 20, symbol P); format: in vivo, common chickweed (Stellaria media); details: amount of applied herbicide 320 g/ha; foliage application after 14-day growth; evaluated three weeks after application
How it was run: as §3

windgrass [17] = assay: Test Example 4: herbicidal effect by soil treatment (Table 19, symbol L); format: in vivo, windgrass (Apera spica-venti); details: amount of applied herbicide 320 g/ha
How it was run: as §2

Chinese sprangletop = assay: Test Example 3: herbicidal effect by foliage application, Wagner pot (Table 18, symbol D); format: in vivo, chinese sprangletop (Leptochloa chinensis); details: 320 g/ha
How it was run: as §1

chickweed [18] = assay: Test Example 4: herbicidal effect by soil treatment (Table 19, symbol P); format: in vivo, common chickweed (Stellaria media); details: amount of applied herbicide 320 g/ha
How it was run: as §2

redroot pigweed [19] = assay: Test Example 4: herbicidal effect by soil treatment (Table 19, symbol N); format: in vivo, redroot pigweed (Amaranthus retroflexus); details: amount of applied herbicide 320 g/ha
How it was run: as §2

green foxtail [20] = assay: Test Example 5: herbicidal effect by foliage application, plastic box (Table 20, symbol G); format: in vivo, green foxtail (Setaria viridis); details: amount of applied herbicide 320 g/ha; foliage application after 14-day growth; evaluated three weeks after application
How it was run: as §3

wild oat [21] = assay: Test Example 4: herbicidal effect by soil treatment (Table 19, symbol I); format: in vivo, wild oat (Avena fatua); details: amount of applied herbicide 320 g/ha
How it was run: as §2

blackgrass [22] = assay: Test Example 5: herbicidal effect by foliage application, plastic box (Table 20, symbol J); format: in vivo, blackgrass (Alopecurus myosuroides); details: amount of applied herbicide 320 g/ha; foliage application after 14-day growth; evaluated three weeks after application
How it was run: as §3

barnyard grass [23] = assay: Test Example 5: herbicidal effect by foliage application, plastic box (Table 20, symbol H); format: in vivo, barnyard grass (Echinochloa crus-galli); details: amount of applied herbicide 320 g/ha; foliage application after 14-day growth; evaluated three weeks after application
How it was run: as §3

persian speedwell [24] = assay: Test Example 5: herbicidal effect by foliage application, plastic box (Table 20, symbol R); format: in vivo, Persian speedwell (Veronica persica); details: amount of applied herbicide 320 g/ha; foliage application after 14-day growth; evaluated three weeks after application
How it was run: as §3

lambsquarters [25] = assay: Test Example 5: herbicidal effect by foliage application, plastic box (Table 20, symbol O); format: in vivo, lambsquarters (Chenopodium album); details: amount of applied herbicide 320 g/ha; foliage application after 14-day growth; evaluated three weeks after application
How it was run: as §3

COc1cccc(-c2sc3c(C)cccc3c2-c2c(O)c(C)nn(C)c2=O)c1 [4-108]
herbicidal effect on barnyard grass (H) (barnyard grass [1]): 4 (Herbicidal rate of 70% or more and less than 90%) | herbicidal effect on rice flat sedge (E) (rice flat sedge): 5 (Herbicidal rate of 90% or more (almost completely withered)) | Herbicidal effect by soil treatment, M: velvetleaf (velvetleaf [2]): 3 (Herbicidal rate of 40% or more and less than 70%) | Herbicidal effect by soil treatment, R: persian speedwell (persian speedwell [3]): 3 (Herbicidal rate of 40% or more and less than 70%) | Herbicidal effect by foliage application, N: redroot pigweed (redroot pigweed [4]): 4 (Herbicidal rate of 70% or more and less than 90%) | Herbicidal effect by soil treatment, G: green foxtail (green foxtail [5]): 0 (Herbicidal rate of 5% or less (almost no effect)) | Herbicidal effect by foliage application, M: velvetleaf (velvetleaf [6]): 4 (Herbicidal rate of 70% or more and less than 90%) | Herbicidal effect by foliage application, K: Italian ryegrass (Italian ryegrass [7]): 5 (Herbicidal rate of 90% or more (almost completely withered)) | Herbicidal effect by soil treatment, K: Italian ryegrass (Italian ryegrass [8]): 1 (Herbicidal rate of 5% or more and less than 20%) | Herbicidal effect by soil treatment, O: lambsquarters (lambsquarters [9]): 4 (Herbicidal rate of 70% or more and less than 90%) | Herbicidal effect by soil treatment, F: southern crabgrass (southern crabgrass [10]): 2 (Herbicidal rate of 20% or more and less than 40%) | Herbicidal effect by foliage application, F: southern crabgrass (southern crabgrass [11]): 3 (Herbicidal rate of 40% or more and less than 70%) | Herbicidal effect by soil treatment, J: blackgrass (blackgrass [12]): 2 (Herbicidal rate of 20% or more and less than 40%) | Herbicidal effect by soil treatment, H: barnyard grass (barnyard grass [13]): 0 (Herbicidal rate of 5% or less (almost no effect)) | Herbicidal effect by foliage application, I: wild oat (wild oat [14]): 0 (Herbicidal rate of 5% or less (almost no effect)) | Herbicidal effect by foliage application, L: windgrass (windgrass [15]): 0 (Herbicidal rate of 5% or less (almost no effect)) | Herbicidal effect by foliage application, P: chickweed (chickweed [16]): 5 (Herbicidal rate of 90% or more (almost completely withered)) | Herbicidal effect by soil treatment, L: windgrass (windgrass [17]): 0 (Herbicidal rate of 5% or less (almost no effect)) | herbicidal effect on Chinese sprangletop (D) (Chinese sprangletop): 0 (Herbicidal rate of 5% or less (almost no effect)) | Herbicidal effect by soil treatment, P: chickweed (chickweed [18]): 1 (Herbicidal rate of 5% or more and less than 20%) | Herbicidal effect by soil treatment, N: redroot pigweed (redroot pigweed [19]): 5 (Herbicidal rate of 90% or more (almost completely withered)) | Herbicidal effect by foliage application, G: green foxtail (green foxtail [20]): 3 (Herbicidal rate of 40% or more and less than 70%) | Herbicidal effect by soil treatment, I: wild oat (wild oat [21]): 0 (Herbicidal rate of 5% or less (almost no effect)) | Herbicidal effect by foliage application, J: blackgrass (blackgrass [22]): 4 (Herbicidal rate of 70% or more and less than 90%) | Herbicidal effect by foliage application, H: barnyard grass (barnyard grass [23]): 2 (Herbicidal rate of 20% or more and less than 40%) | Herbicidal effect by foliage application, R: persian speedwell (persian speedwell [24]): 5 (Herbicidal rate of 90% or more (almost completely withered)) | Herbicidal effect by foliage application, O: lambsquarters (lambsquarters [25]): 4 (Herbicidal rate of 70% or more and less than 90%)

COc1ccc(-c2sc3cc(F)c(F)cc3c2-c2c(O)c(C)nn(C)c2=O)cc1OC [5-033]
herbicidal effect on barnyard grass (H) (barnyard grass [1]): 4 (Herbicidal rate of 70% or more and less than 90%) | herbicidal effect on rice flat sedge (E) (rice flat sedge): 4 (Herbicidal rate of 70% or more and less than 90%) | M: velvetleaf, herbicidal effect grade (velvetleaf [2]): 0 (Herbicidal rate of 5% or less (almost no effect)) | R: persian speedwell, herbicidal effect grade (persian speedwell [3]): 0 (Herbicidal rate of 5% or less (almost no effect)) | Herbicidal effect by foliage application, N: redroot pigweed (redroot pigweed [4]): 3 (Herbicidal rate of 40% or more and less than 70%) | G: green foxtail, herbicidal effect grade (green foxtail [5]): 3 (Herbicidal rate of 40% or more and less than 70%) | Herbicidal effect by foliage application, M: velvetleaf (velvetleaf [6]): 4 (Herbicidal rate of 70% or more and less than 90%) | Herbicidal effect by foliage application, K: Italian ryegrass (Italian ryegrass [7]): 4 (Herbicidal rate of 70% or more and less than 90%) | K: Italian ryegrass, herbicidal effect grade (Italian ryegrass [8]): 0 (Herbicidal rate of 5% or less (almost no effect)) | O: lambsquarters, herbicidal effect grade (lambsquarters [9]): 4 (Herbicidal rate of 70% or more and less than 90%) | F: southern crabgrass, herbicidal effect grade (southern crabgrass [10]): 3 (Herbicidal rate of 40% or more and less than 70%) | Herbicidal effect by foliage application, F: southern crabgrass (southern crabgrass [11]): 1 (Herbicidal rate of 5% or more and less than 20%) | J: blackgrass, herbicidal effect grade (blackgrass [12]): 0 (Herbicidal rate of 5% or less (almost no effect)) | H: barnyard grass, herbicidal effect grade (barnyard grass [13]): 3 (Herbicidal rate of 40% or more and less than 70%) | Herbicidal effect by foliage application, I: wild oat (wild oat [14]): 0 (Herbicidal rate of 5% or less (almost no effect)) | Herbicidal effect by foliage application, L: windgrass (windgrass [15]): 0 (Herbicidal rate of 5% or less (almost no effect)) | Herbicidal effect by foliage application, P: chickweed (chickweed [16]): 5 (Herbicidal rate of 90% or more (almost completely withered)) | L: windgrass, herbicidal effect grade (windgrass [17]): 0 (Herbicidal rate of 5% or less (almost no effect)) | herbicidal effect on Chinese sprangletop (D) (Chinese sprangletop): 3 (Herbicidal rate of 40% or more and less than 70%) | P: chickweed, herbicidal effect grade (chickweed [18]): 1 (Herbicidal rate of 5% or more and less than 20%) | N: redroot pigweed, herbicidal effect grade (redroot pigweed [19]): 3 (Herbicidal rate of 40% or more and less than 70%) | Herbicidal effect by foliage application, G: green foxtail (green foxtail [20]): 4 (Herbicidal rate of 70% or more and less than 90%) | I: wild oat, herbicidal effect grade (wild oat [21]): 0 (Herbicidal rate of 5% or less (almost no effect)) | Herbicidal effect by foliage application, J: blackgrass (blackgrass [22]): 0 (Herbicidal rate of 5% or less (almost no effect)) | Herbicidal effect by foliage application, H: barnyard grass (barnyard grass [23]): 3 (Herbicidal rate of 40% or more and less than 70%) | Herbicidal effect by foliage application, R: persian speedwell (persian speedwell [24]): 5 (Herbicidal rate of 90% or more (almost completely withered)) | Herbicidal effect by foliage application, O: lambsquarters (lambsquarters [25]): 4 (Herbicidal rate of 70% or more and less than 90%)
